Measured values: publication PMC9115112, “A2B adenosine receptor antagonists rescue lymphocyte activity in adenosine-producing patient-derived cancer models” (Journal for Immunotherapy of Cancer, 2022)

Assays:
[1] = system: autologous TILs and patient-derived sarcoma spheroids; assay: Spheroid infiltration by autologous TILs (real-time imaging and flow cytometry); assay type: cell-based, human; settings: antagonist 12 µM, 3 days, n=8 donors, not statistically significant
Description: Spheroids were prepared using patient-derived sarcoma cell lines. 1×10^4 cells were seeded per well in 96-well ultra-low attachment plate with DMEM-F12 media containing 20% FBS and 1% PS for 5 days. 3×10^4 CSFE-labeled autologous expanded TILs, at Effector:target ratio of 3:1, were added to the spheroid at day five with A2BAR antagonism treatment at 12 µM. After 3 days, spheroid was removed and split into two groups—IN and OUT. […] Spheroids were washed with PBS at least two times. GentleMACS tumor dissociation kit (Miltenyi Biotec) was used to digest the spheroids for FC analysis.
Brightfield and phase contrast images under 4X objective were acquired every 6 hours on IncuCyte S3 system (Essen BioScience). For breast cancer patient-derived spheroid culture, 1×10^4 cells per well were seeded with A2BAR antagonist at 12 µM treatment for 6 days real time imaging. For spheroid infiltration, after the addition of CSFE-labeled autologous expanded TILs and treatment with A2BAR antagonist at 12 µM, green fluorescence images were acquired for 3 days. All spheroid invasion analysis was performed using top hat segmentation with IncuCyte software.
Cell surface was stained with mouse monoclonal antihuman antibodies against CD3, CD4, CD8, CD45RA, CD56 and CD19 listed in online supplemental table 1. Cell surface antibodies and live/dead (L/D) marker were incubated with samples at 4°C for 20 min after washing two times with flow cytometry buffer containing 5% FBS in PBS. For spheroid infiltrated TIL phenotyping, digested IN and OUT spheroids were stained with cell surface marker and analyzed on NovoCyte (ACEA Bioscience) with the use of FlowJo software (Tree Star) by gating single cell based on forward and side scatters. A representative gating strategy for CD8 naïve T cells is shown in online supplemental figure 3A. Compensated flow cytometry standard (FCS) files with only live cells were concatenated for downstream tSNE analysis using the ‘cytofkit’ R package (https://github.com/JinmiaoChenLab/cytofkit).
Figure 6 Infiltration of TILs into autologous patient-derived sarcoma spheroids after A2BAR antagonist treatment. (A) Representative real-time imaging of spheroid TIL infiltration over 3 days under 4× objective. Green areas demarcate CFSE-labeled TILs infiltrated into the red boundary tumor spheroid. (B) Relative TIL infiltration into autologous spheroids (n=8 donors) measured by flow cytometer. Antagonist 12 µM was added with CSFE-labeled TILs after spheroid formation on day five. (C) Representative flow cytometry plot of CFSE positive TILs in CD73+ tumor spheroid. (D) tSNE analysis and (E) annotated pie chart of TILs within (IN) and outside of (OUT) the spheroids without treatment (n=8 donors, indicated within the pie chart). Wilcoxon Rank Sum test was performed to compare the various IN vs OUT adhesion markers. Expression of (F) CD3 T cells, (G) CD49a+ CD103+ among CD8 T cells and (H) CD69 MFI among CD4 T cells IN and OUT of the spheroids without treatment (n=8 donors). (I) Relative CD8/CD4 TIL ratio IN the spheroids. Differential expression of relative (J–L). CD49a+ CD103+ cells IN the spheroids (n=8 donors) of CD3, CD8, and CD4 TILs. Antagonist 12 µM was added for J–L. Outlier is presented as diamond shape and defined by Tukey’s rule, which is not included in statistical analysis. Box plots with minimum, first quartile, median, third quartile, and maximum are presented. Unpaired and non-parametric statistical analysis—Mann-Whitney test was performed against untreated control with *p<0.05, **p<0.01, ***p<0.001, and ****p<0.0001. CFSE, carboxyfluorescein succinimidyl ester; TIL, tumor infiltrating lymphocyte; tSNE, T-distributed stochastic neighboring embedding. TEXT PRINTED IN THE PICTURE: (C) ISAM-R56A: TILs 13.0 DOUBTS OF THE COPYIST ABOUT THIS PICTURE: Panel C, ISAM-R56A, TILs: the print is small, 13.0 could be 13.8 or 13.6 / Panel C also prints a gate label 'TILs 3.17' for the Untreated control. […]

[2] = system: healthy donor T cells (PBMCs) and NK cells; assay: CFSE proliferation assay with exogenous adenosine; assay type: cell-based, human; settings: exogenous adenosine 0.1 mM, antagonist 12 µM, 3 days (T) and 6 days (NK)
Description: Freshly isolated PBMCs and NK cells were stained with 5 µM FITC-conjugated carboxyfluorescein succinimidyl ester (CFSE, BioLegend) in phosphate-buffered saline (PBS) (Life Technologies) at room temperature for 5 min. CSFE stained cells were washed with flow cytometer buffer three times. CSFE-labeled healthy PBMCs and NK cells were cultured in 96-well plates with X-VIVO20% and 1% PS for 3 and 6 days, respectively. Healthy PBMCs were incubated with Human T-activator CD3/CD28 beads at 1:4 ratio (Thermo Fisher Scientific) and IL-2 (Novartis) at 100 IU/mL. Healthy donor NK cells were incubated with 1000 IU/mL IL-2 only. 2×10^5 PBMCs and 5×10^4 NK cells were counted for treatment with ADO (Sigma-Aldrich) and 12 μM of A2BAR antagonist at the same day.
Figure 3 Rescue of lymphocyte proliferation by of A2BAR antagonism. Relative proliferation of: (A) CD45RA- CD4 T cells, (B) CD45RA+ CD4 T cells, (C) CD45RA- CD8 T cells, (D) CD45RA+ CD8 T cells, and (E) NK cells, after incubation with exogenous adenosine 0.1 mM and A2BAR antagonist 12 µM for 3 (A–D) and 6 (E) days. (n=10 healthy donors) CD45RA expression differentiates naïve and effector T cells from central and effector memory T cells. Box plots with minimum, first quartile, median, third quartile, and maximum are presented. Unpaired and non-parametric statistical analysis—Mann-Whitney test was performed against untreated control with *p<0.05, **p<0.01, ***p<0.001, and ****p<0.0001. (F–J) Representative CFSE histogram on the corresponding lymphocyte subset. CFSE, carboxyfluorescein succinimidyl ester.

[3] = system: healthy donor T cells in MPNST patient-derived sarcoma spheroid; assay: Proliferation assay with CD73-expressing patient-derived sarcoma (MPNST) spheroid; assay type: cell-based, human; settings: antagonist 12 µM, 3 days, endogenous adenosine, n=5 healthy donors
Description: A malignant peripheral nerve sheath tumor (MPNST) patient-derived sarcoma cell line was used to grow spheroid by seeding 1×10^4 cells per well in a 96-well ultra-low attachment plate (Thermo Fisher Scientific) with DMEM-F12 media containing 20% FBS and 1% PS for 5 days. 1×10^5 CSFE-labeled healthy PBMCs, ratio of 10:1, were added to the CD73 expressing, adenosine-producing spheroid at day five. Similar to the proliferation assay with exogenous ADO, CD3/CD28 beads at 1:4 ratio and IL-2 at 100 IU/mL were added. A2BAR antagonism treatment at 12 μM was added at the same day.
Figure 5 Rescue of lymphocyte proliferation in sarcoma spheroids by A2BAR antagonism. Relative proliferation of: (A) CD45RA- CD4 T cells, (B) CD45RA+CD4 T cells, (C) CD45RA- CD8 T cells and (D) CD45RA+ CD8 T cells after antagonist 12 µM treatment for 3 days in MPNST patient-derived sarcoma spheroid. (n=5 healthy donors) Box plots with minimum, first quartile, median, third quartile, and maximum are presented. Unpaired and non-parametric statistical analysis—Mann-Whitney test was performed against untreated control with *p<0.05, **p<0.01, ***p<0.001, and ****p<0.0001. (E) Representative CSFE dilution of CD45RA+ CD8 T cells. CD45RA expression differentiates naïve and effector T cells from central and effector memory T cells. MPNST, malignant peripheral nerve sheath tumors; UPS, undifferentiated pleomorphic sarcoma.

hA2B (A2BAR) = target: T1, hA2B (A2BAR) (Homo sapiens, UniProt P29275); assay: cAMP assay, NECA-stimulated, HEK-293 cells with transfected A2BAR; assay type: cell-based; settings: n=3, read-out: Kb hA2B (cAMP production)
T1 construct: expressed in transfected cells; host or cells: HEK-293
T1 sequence (P29275 1-332): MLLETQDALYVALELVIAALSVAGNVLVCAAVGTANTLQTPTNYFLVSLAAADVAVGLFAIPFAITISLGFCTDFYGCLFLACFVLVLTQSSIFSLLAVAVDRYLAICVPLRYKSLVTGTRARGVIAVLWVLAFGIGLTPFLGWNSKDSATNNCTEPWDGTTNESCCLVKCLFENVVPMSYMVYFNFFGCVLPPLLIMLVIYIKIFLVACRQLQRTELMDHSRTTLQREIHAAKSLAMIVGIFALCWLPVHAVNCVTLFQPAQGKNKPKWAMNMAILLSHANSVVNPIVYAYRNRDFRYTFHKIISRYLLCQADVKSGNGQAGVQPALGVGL
Description: Assays were performed in transfected A2BAR using a cyclic AMP (cAMP) enzyme immunoassay kit (Amersham Biosciences) following previously described protocols.[28 30] HEK-293 cells were seeded (10,000 cells/well) in 96-well culture plates and incubated at 37°C in an atmosphere with 5% CO2 in Eagle’s Medium Nutrient Mixture F-12 (EMEM F-12), containing 10% fetal calf serum (FCS) and 1% L-Glutamine. Cells were washed three times with 200 µL assay medium (EMEM-F12 and 25 mM HEPES pH=7.4) and pre-incubated with assay medium containing 30 µM rolipram and test compounds at 37°C for 15 min. Ten µM NECA was incubated for 15 min at 37°C (total incubation time 30 min). Reaction was stopped with lysis buffer supplied in the kit and the enzyme immunoassay was carried out for detection of intracellular cAMP at 450 nm in an Ultra Evolution detector (Tecan). The dose-response curve of NECA-elicited cAMP formation was used to determine the initial choice of A2BAR antagonist concentration (online supplemental figure 2).

[4] = system: CD4 and CD8 T cells (healthy donor PBMCs); assay: IFNy and perforin cytokine production assay, with CD69 expression (flow cytometry); assay type: cell-based, human; settings: antagonist 12 µM, exogenous adenosine
Description: Similar experimental setup was performed as the extracellular ADO uptake assay. Cells were harvested after 2 days of CD3/CD28 bead stimulation before treatment with PMA/ionomycin (Sigma Aldrich) and golgi-inhibitors (BD biosciences). After 3 hours of subsequent incubation, intracellular staining was performed for IFNy and perforin (online supplemental table 1).
(§1) Figure 4 Rescue of lymphocyte proinflammatory cytokine production IFNy and perforin by A2BAR antagonism. (A,B) Inhibition of extracellular adenosine uptake via phosphorylated-AMP activated protein kinase (pAMPK) staining (n=7 healthy donors). Production of proinflammatory cytokines—(C,D) IFNy and (E) perforin in CD4 (n=5 healthy donors) and CD8 (n=6 healthy donors) T cells. Expression of CD69 adhesion molecule in (F). CD4 (n=7 healthy donors) and (G) CD8 (n=4 healthy donors) T cells. A2BAR antagonist 12 µM was added. Outlier is presented as diamond shape and defined by Tukey’s rule, which is not included in statistical analysis. Box plots with minimum, first quartile, median, third quartile, and maximum are presented. Normalized fold change is based on percent values compared with untreated controls. Unpaired and non-parametric statistical analysis—Mann-Whitney test was performed against untreated control with *p<0.05, **p<0.01, ***p<0.001, and ****p<0.0001.

[5] = system: pAMPK in CD4 and CD8 T cells; assay: Extracellular ADO uptake assay via pAMPK staining; assay type: cell-based, human; settings: antagonist 12 µM, 50 µM exogenous adenosine, n=7 healthy donors
Description: Experimental setup was adopted from a previous study whereby AR antagonist was added to pretreat cells before exogenous adenosine treatment for intracellular and cytokine staining.[37] In brief, PBMCs were treated with 12 µM of A2BAR antagonists for 90 min before the addition of 50 µM of adenosine for 2 hours. Cells were harvested after 3 hours of CD3/CD28 bead stimulation before intracellular staining with phosphor-AMPK (Thr183, Thr172) rabbit primary antibody (Thermo Fisher Scientific) and antirabbit secondary antibody (BD biosciences).
as §1

| Compound | Median increased TIL infiltration vs untreated [1] [%] | Rescue of lymphocyte (T and NK cell) proliferation [2] | Rescue of naïve and effector (CD45RA+) CD8 T cell proliferation in adenosine-producing sarcoma spheroids [3] | Kb (hA2B (A2BAR)) [nM] | IFNy production by T cells on adenosine suppression (subset not given) [4] | Perforin production by CD8 T cells on adenosine suppression [4] | pAMPK (extracellular ADO uptake) in CD4 T cells [5] |
| --- | --- | --- | --- | --- | --- | --- | --- |
| Cc1cc(-c2nnc(N)nc2-c2ccc(F)cc2)cc(Cl)n1 [AZD-4635, reference compound] | 20 | did not restore the proliferation |  |  |  |  |  |
| CC1=C(C(=O)OC(C)C)C(c2ccco2)NC(=S)N1 (stereo not shown) [SY1AF-30] |  | None of the other A2BAR antagonists (SY1AF–30, SY1AF–80 and SY1KO–24) had any measurable impact | significantly rescued | 4.72 | significantly improved | significantly improved |  |
| CCOC(=O)C1=C(C)NC(=O)NC1c1ccsc1 (stereo not shown) [SY1AF-80] |  | None of the other A2BAR antagonists (SY1AF–30, SY1AF–80 and SY1KO–24) had any measurable impact | significantly rescued | 25.2 |  |  | significantly inhibited ADO uptake |
| CC1=C(C(=O)OC(C)C)C(c2ccco2)NC(=NC#N)N1 (stereo not shown) [SY1KO-24] |  | None of the other A2BAR antagonists (SY1AF–30, SY1AF–80 and SY1KO–24) had any measurable impact |  | 116 |  |  |  |
